Assay results: PMC6471485, “Selective Inhibitors of a Human Prolyl Hydroxylase (OGFOD1) Involved in Ribosomal Decoding” (Chemistry (Weinheim an Der Bergstrasse, Germany), 2019)

Legend:
PHD2 = molecular target: T1, PHD2 (Homo sapiens, UniProt Q9GZT9); assay: 2OG displacement from PHD2 by CPMG-edited 1H NMR; type: binding; details: 10 µM 2OG, 10 µM PHD2, 70 µM inhibitor
T1 construct: 181-426 or OGFOD1
Description: total echo time of 40 ms, a relaxation delay of 2 s, with 256 scans. Water suppression was achieved by presaturation. Samples contained 30 µM apo-PHD2181-426 or OGFOD1, supplemented with 60 µM Zn(II), 30 µM of inhibitor, all in 50 mM Tris-d11, pH 7.5, 10 % D2O, […]
wLOGSY Binding Experiments: For water-ligand observed gradient spectroscopy (wLOGSY) analyses, typical experimental parameters were the following: mixing time, 1 s; relaxation delay, 2 s; number of transients, 512. Solvent excitation was achieved using a 16-ms 180° selective rectangular shape pulse with 1,000 points (Squa100.1000) set at the H2O frequency. […]
Competition Experiments by 2OG Displacement: 2OG displacement assays[12] were performed using CPMG-edited 1H spectra. […] The 2OG methylene resonance at 2.35 ppm was monitored. […]
HeLa cells were cultured in DMEM media supplemented with 10 % fetal bovine serum, 4 mM L-glutamine, 100 U/mL penicillin, and 100 µg/mL streptomycin. […] Cell extracts were analyzed by SDS-PAGE, electroblotted onto PVDF membranes (Millipore) and probed with anti-HIF-1α antibody (clone 54, BD Transduction Laboratories) at 1:1000 dilution for 1 h at room temperature. […] Target proteins were detected with SuperSignal Chemiluminescent […]
Figure S15. Single-concentration qualitative 2OG displacement as monitored by CPMG-edited 1H NMR spectroscopy. […]

PHD2181-426 = molecular target: T2, PHD2181-426 (Homo sapiens, UniProt Q9GZT9); assay: PHD2 inhibition assay: hydroxylation of HIF-1a CODD peptide by MALDI-TOF MS; type: biochemical
T2 construct: 181-426 (1 µM) was
Description: OGFOD1 inhibition assays were performed by determining the extent of hydroxylation of a 20mer fragment of human ribosomal protein S23 (RPS23) containing residues 51-70 (H2N- […]
-CONH2) by matrix-assisted laser desorption/ionization time-of-flight mass spectrometry (MALDI-TOF MS) using a Waters Micromass MALDI micro MX mass spectrometer and MassLynx 4.1, as previously described.[7,8] The optimized hydroxylation assay involved incubation of OGFOD1 (1 µM) with inhibitor (1 % v/v in DMSO) in the presence of (NH4)2Fe(SO4)2 (50 µM), the disodium salt of 2-oxoglutarate (25 µM), […]
OGFOD1 was pre-incubated with inhibitor for 5 min before initiation of the reaction via the addition of the other reagents. Reactions were quenched with formic acid (1 % v/v) after 15 min. Samples were prepared for MALDI using α-cyano-4-hydrocinnamic acid (CHCA; prepared in 50 % acetonitrile) as a matrix. Dose-responses were assessed in 8-point triplicates, normalized to a no enzyme negative control and a no inhibitor positive control. Non-linear regression analysis was performed using Prism (GraphPad).
PHD2181-426 inhibition assays were performed by determining the extent of hydroxylation of a HIF-1a CODD peptide substrate (HIF-1a residues 556-574), using MALDI-TOF MS as described with OGFOD1.[8] The optimized hydroxylation assay involved incubation of PHD2181-426 (1 µM) with inhibitor (1 % v/v in DMSO) in the presence of (NH4)2Fe(SO4)2 (10 µM), the disodium salt of 2-oxoglutarate (60 µM), sodium ascorbate (100 µM), and HIF-1aCODD 556-574 (50 µM) in HEPES (50 mM, pH 7.5) at 37 °C for 15 min. The FIH assay employed MALDI-TOF MS detection of hydroxylation. Reactions consisted of FIH […]
(50 nM), ankyrin peptide (50 µM; […]), the disodium salt of 2- […]
oxoglutarate (100 µM), sodium ascorbate (100 µM), and (NH4)2Fe(SO4)2 (10 µM), and […]

T2 sequence (Q9GZT9 181-426 limits assumed): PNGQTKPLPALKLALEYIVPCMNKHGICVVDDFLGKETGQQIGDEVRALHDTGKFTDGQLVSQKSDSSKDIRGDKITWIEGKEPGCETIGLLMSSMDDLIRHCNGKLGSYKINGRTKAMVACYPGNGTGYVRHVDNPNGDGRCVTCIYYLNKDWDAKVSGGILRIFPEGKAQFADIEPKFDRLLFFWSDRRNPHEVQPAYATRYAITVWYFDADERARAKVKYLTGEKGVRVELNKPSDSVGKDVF
T1 sequence (Q9GZT9 181-426 limits assumed): as above

Structure (SMILES): Cn1c(O)c(C(=O)CCc2ccccc2)c(=O)n(C)c1=O [compound 26]
- displacement of bound 2OG from PHD2, in words (PHD2): not from that of PHD2
- IC50 (PHD2181-426): > 100 µM
- inhibition of PHD2 hydroxylation activity, in words (PHD2181-426; inhibitor 100 µM, PHD2181-426 1 µM (Figures S2, S8)): Lack of inhibition

Structure (SMILES): Cn1c(O)c(C(=O)CCc2cccs2)c(=O)n(C)c1=O [compound 42]
- displacement of bound 2OG from PHD2, in words (PHD2): not from that of PHD2
- IC50 (PHD2181-426): > 100 µM
